These results are taken from US9682049B2, “Non-racemic mixtures of various ratios of D- and L-methadone and methods of treating pain using the same” (priority 2015, dated 2017).

Structures can show the parent of a compound that is named as a salt. Where two headings read alike, the source gives them in different places.

For data set [1], the system named is neuropathic pain. The following applies: cited from earlier work; for placebo-adjusted relief of average daily pain intensity: Morley.
The subject of data set [2] is patients with neuropathic pain. The following applies: Morley study; cited from earlier work.
Data set [3] concerns painful diabetic neuropathy. Kind of data set: Changes in VAS scores (SF-MPQ), double-blind randomized crossover study vs placebo. The class given is in vivo, human. The procedure: (§1) Potential patients were recruited by advertising and screened via interview, review of health history and medications, physical examination, lab work, and ECG.
(§2) The average daily pain score and the worst daily pain scores were measured. Patients recorded their pain score four times daily on a scale of 0 to 10. Additionally, pain scores were measured using a Visual Analog Scale (VAS) during weekly visits to the study center.
VAS is a measurement instrument that measures a characteristic or attitude that is believed to range across a continuum of values. For example, the amount of pain that a patient feels may range across a continuum from no pain to an extreme amount of pain. […] In order to capture this underlying continuum, VAS was devised, and in the present study, VAS was used as described here. (See e.g., D. Gould et al., J. Clin. Nursing, 10: 697-706 (2001)).
VAS was conducted by using a horizontal line, 100 mm in length, anchored by word descriptors at each end, as illustrated below. Patients marked on a line (as shown below) the point that best represented their perception of pain.
A VAS score was determined by measuring in millimeters from the left hand end of the line to the point that the patient marked.

Data set [4] has as its system patients with painful diabetic neuropathy. Kind of data set: Patient withdrawal because of side effects in the 3:1 D:L-methadone study. The following applies: terminated the study because of side effects (mostly nausea and vomiting). As to the method: Patients were subjected to forceful weekly titration of doses from 15 mg the first week, to 30 mg the second week, and to 40 mg the third and fourth weeks.

The test system of data set [5] is painful diabetic neuropathy. The data set can be described thus: Changes in average daily pain scores, double-blind randomized crossover study vs placebo. In kind it is in vivo, human. The procedure: as §1, §2
Data set [6] can be described thus: Solubility of 75/25 D/L methadone HCl drug substance. In kind it is physicochemical. The text has this:
General Properties of 75/25 D/L Methadone-HCl Included the Following Physical Characteristics: […]

Another data set relates to neuropathic pain model. The note with it: intrathecal, rats; not reversed by naloxone; cited from earlier work.
In data set [7] the test system is neuropathic pain. The note with it: small group of patients, high dose; cited from earlier work.
Data set [8] has as its system neuropathic pain. The following applies: Lemberg et al. 2006; cited from earlier work.

In the case of `CCC(=O)C(CC(C)N(C)C)(c1ccccc1)c1ccccc1` (racemic) [racemic methadone, methadone], the entries for the “placebo-adjusted relief of average daily pain intensity” value in the data set with neuropathic pain [1] (10 mg of racemic methadone) and in the data set with neuropathic pain [1] (20 mg of racemic methadone) were −3.20 and −6.56, respectively. The “analgesic effect in neuropathic pain” value in the data set with neuropathic pain [1] (Morley et al. 2003) is given as “analgesic effect”. Moreover, the patient withdrawal rate in data set [2] is given as 37%.

Consider `CCC(=O)C(CC(C)N(C)C)(c1ccccc1)c1ccccc1` (racemic) [75:25 D:L-methadone, Mixture of 75% (6S)-6-(dimethylamino)-4,4-dipheylhepan-3-one hydrochloride and 25% (6R)-6-(dimethylamino)-4,4-dipheylhepan-3-one hydrochloride], for which the “Change in VAS score (SF-MPQ), median” value is −7.0 in [3] (15 mg); −8.0 in [3] (30 mg); −13.0 in data set [3] (40 mg (1st Week)); −10.0 in [3] (40 mg (2nd Week)); −12.0 in data set [3] (40 mg (Both Weeks)); −8.0 in data set [3] (15-30 mg (Combined), pooled). The “Change in VAS score, difference in means vs placebo (95% CI)” value is −10.1 (−21.0; 0.9) in [3] (15 mg); −6.3 (−17.4; 4.9) in [3] (30 mg); −10.5 (−19.6; −1.4) in [3] (40 mg (1st Week)); −8.1 (−18.3; 2.2) in [3] (40 mg (2nd Week)); −9.3 (−15.8; − 2.8) in [3] (40 mg (Both Weeks)); −8.1 (−15.6; −0.6) in [3] (15-30 mg (Combined), pooled). The “Change in VAS score (SF-MPQ), mean” value in data set [3] (15 mg, VAS 100 mm line, primary efficacy population) is listed as −12.8; in data set [3] (30 mg) it was −14.9; in data set [3] (40 mg (1st Week)), −19.5; in data set [3] (40 mg (2nd Week)) it was −20.7; in data set [3] (40 mg (Both Weeks)), −20.1; in [3] (15-30 mg (Combined), pooled) it was −13.9. Further, in data set [3] (lowest tested dose (15 mg) of the 3:1 mixture), the “placebo-adjusted relief of average daily pain intensity” value is −10.1. Also, the “placebo-adjusted relief of average daily pain intensity compared with 10 mg of racemic methadone” value in data set [3] (vs Morley 10 mg racemic methadone) turned out to be 3 times better. Moreover, in [3] (vs Morley 20 mg racemic methadone), the “placebo-adjusted relief of average daily pain intensity compared with 20 mg of racemic methadone” value is recorded as 54 % better. In [4], this molecule registered a patient withdrawal rate of 17%. In addition, the “Change in average daily pain score, Difference in Means vs placebo (95% CI)” value is recorded as −0.84 (−1.64; −0.04) in data set [5] (15 mg); −1.14 (−2.30; 0.02) in data set [5] (30 mg); −1.08 (−2.20; 0.03) in [5] (40 mg (1st Week)); −1.17 (−2.28; −0.06) in data set [5] (40 mg (2nd Week)); −1.13 (−1.88; −0.38) in [5] (40 mg (Both Weeks)); −0.99 (1.67; −0.31) in data set [5] (15-30 mg Combined). For the same molecule, the “Change in average daily pain score, Mean (SD)” value was −0.88 (1.46) in data set [5] (15 mg, scale of 0 to 10, two clinical sites combined); −1.41 (1.87) in [5] (30 mg); −1.57 (1.98) in [5] (40 mg (1st Week)); −1.73 (2.01) in [5] (40 mg (2nd Week)); −1.65 (1.97) in data set [5] (40 mg (Both Weeks)); −1.14 (1.67) in data set [5] (15-30 mg Combined). The Solubility entry is on record as “readily soluble” in data set [6] (alcohols), “practically insoluble” in [6] (ether), “readily soluble” in data set [6] (methylene chloride) and “readily soluble” in [6] (water).

As to `CCC(=O)C(C[C@H](C)N(C)C)(c1ccccc1)c1ccccc1` [D-methadone, (S)-(+)-methadone], the antinociception result in the data set on neuropathic pain model is “produced antinociception”. Moreover, in the data set with neuropathic pain [7], the analgesic response result is “no analgesic response”. For the same molecule, the “potency in neuropathic pain” value in the data set on neuropathic pain [8] was “inactive”.

`CCC(=O)C(C[C@@H](C)N(C)C)(c1ccccc1)c1ccccc1` [L-methadone, (R)-(−)-methadone]: the “potency in neuropathic pain” value in the data set on neuropathic pain [8] was “greater potency than other opioids”.
